Results as given in ChEMBL document CHEMBL1130752, “Quaternary substituted PDE IV inhibitors II: the synthesis and in vitro evaluation of a novel series of gamma-lactams” (Bioorg Med Chem Lett, 1998).

Experiments:
Phosphodiesterase 4 [1] = molecular target: T1, Phosphodiesterase 4 (Homo sapiens, UniProt P27815+Q08499+Q07343+Q08493); assay: In vitro inhibition of phosphodiesterase (PDE IV) from guinea pig macrophages.; format: protein assay, Cavia porcellus; settings: target entry is the homologue from another species
Phosphodiesterase 4 [2] = molecular target: T1, Phosphodiesterase 4; assay: Affinity for phosphodiesterase (PDE IV) in guinea pig brain membrane using [3H]rolipram displacement.; format: cell membranes, Cavia porcellus; settings: target entry is the homologue from another species

In the case of CCCCN1CCC(Cc2ccncc2)(c2ccc(OC)c(OC3CCCC3)c2)C1=O (stereo unspecified), the IC50 (Phosphodiesterase 4 [1]) is reported as 123 nM and the Ki (Phosphodiesterase 4 [2]) is reported as 137 nM.

With COc1ccc(C2(CC#N)CCN(C(=O)OC(C)(C)C)C2=O)cc1OC1CCCC1 (stereo unspecified) the IC50 (Phosphodiesterase 4 [1]) was 82 nM and the Ki (Phosphodiesterase 4 [2]) was 476 nM.

In the case of COc1ccc(C2(Cc3ccncc3)CCN(Cc3cccc4ccccc34)C2=O)cc1OC1CCCC1 (stereo unspecified), the IC50 (Phosphodiesterase 4 [1]) is reported as 293 nM and the Ki (Phosphodiesterase 4 [2]) is reported as 822 nM.

In the case of COc1ccc(C2CCNC2=O)cc1OC1CCCC1 (stereo unspecified), the IC50 (Phosphodiesterase 4 [1]) is reported as 5000 nM and the Ki (Phosphodiesterase 4 [2]) is reported as greater than 3745 nM.

With COc1ccc(C2(Cc3ccncc3)CCN(C(=O)OC(C)C)C2=O)cc1OC1CCCC1 (stereo unspecified) the IC50 (Phosphodiesterase 4 [1]) was 44 nM and the Ki (Phosphodiesterase 4 [2]) was 113 nM.

With COC(=O)N1CCC(Cc2ccncc2)(c2ccc(OC)c(OC3CCCC3)c2)C1=O (stereo unspecified) the IC50 (Phosphodiesterase 4 [1]) was 293 nM and the Ki (Phosphodiesterase 4 [2]) was 822 nM.

With COc1ccc(C2(Cc3ccncc3)CCNC2=O)cc1OC1CCCC1 (stereo unspecified) the IC50 (Phosphodiesterase 4 [1]) was 800 nM and the Ki (Phosphodiesterase 4 [2]) was 210 nM.

COc1ccc(C2(Cc3ccncc3)CCN(Cc3ccc4ccccc4c3)C2=O)cc1OC1CCCC1 (stereo unspecified) showed an IC50 (Phosphodiesterase 4 [1]) of 17 nM and a Ki (Phosphodiesterase 4 [2]) of 4.3 nM.

In the case of COc1ccc(C2(Cc3ccncc3)CCN(S(=O)(=O)c3ccc(C)cc3)C2=O)cc1OC1CCCC1 (stereo unspecified), the IC50 (Phosphodiesterase 4 [1]) is reported as 61 nM and the Ki (Phosphodiesterase 4 [2]) is reported as 217 nM.

For CCOC(=O)N1CCC(Cc2ccncc2)(c2ccc(OC)c(OC3CCCC3)c2)C1=O (stereo unspecified), the IC50 (Phosphodiesterase 4 [1]) was 137 nM and the Ki (Phosphodiesterase 4 [2]) was 139 nM.

With COc1ccc(C2(Cc3ccncc3)CCN(CC3CCCCC3)C2=O)cc1OC1CCCC1 (stereo unspecified) the IC50 (Phosphodiesterase 4 [1]) was 48 nM and the Ki (Phosphodiesterase 4 [2]) was 43 nM.

COc1ccc(C2(Cc3ccncc3)CCN(C(C)=O)C2=O)cc1OC1CCCC1 (stereo unspecified) showed an IC50 (Phosphodiesterase 4 [1]) of 461 nM and a Ki (Phosphodiesterase 4 [2]) of 367 nM.

COc1ccc(C2(Cc3ccncc3)CCN(C(=O)OC(C)(C)C)C2=O)cc1OC1CCCC1 (stereo unspecified) gave an IC50 (Phosphodiesterase 4 [1]) of 6.3 nM and a Ki (Phosphodiesterase 4 [2]) of 7.5 nM.

COc1ccc(C2(Cc3ccncc3)CCN(C(=O)OC(C)(C)C)C2)cc1OC1CCCC1 (stereo unspecified) gave an IC50 (Phosphodiesterase 4 [1]) of 807 nM and a Ki (Phosphodiesterase 4 [2]) of 470 nM.

In the case of COc1ccc(C2(Cc3ccncc3)CCN(Cc3ccccc3)C2=O)cc1OC1CCCC1 (stereo unspecified), the IC50 (Phosphodiesterase 4 [1]) is reported as 56 nM and the Ki (Phosphodiesterase 4 [2]) is reported as 51 nM.

Compound COc1ccc(C2(Cc3ccccc3)CCNC2=O)cc1OC1CCCC1 (stereo unspecified) has an IC50 (Phosphodiesterase 4 [1]) of 1000 nM and a Ki (Phosphodiesterase 4 [2]) of 787 nM.

In the case of COc1ccc(C2(Cc3ccncc3)CCN(C(=O)N(C)C)C2=O)cc1OC1CCCC1 (stereo unspecified), the IC50 (Phosphodiesterase 4 [1]) is reported as 319 nM and the Ki (Phosphodiesterase 4 [2]) is reported as 274 nM.

COc1ccc(C2(Cc3ccncc3)CCN(CCC(C)C)C2=O)cc1OC1CCCC1 (stereo unspecified) showed an IC50 (Phosphodiesterase 4 [1]) of 81 nM and a Ki (Phosphodiesterase 4 [2]) of 80 nM.

Compound COc1ccc(C2(Cc3cc[n+]([O-])cc3)CCNC2=O)cc1OC1CCCC1 (stereo unspecified) has an IC50 (Phosphodiesterase 4 [1]) of 1600 nM and a Ki (Phosphodiesterase 4 [2]) of 2247 nM.

Work on COc1ccc(C2(Cc3ccncc3)CCN(Cc3ccncc3)C2=O)cc1OC1CCCC1 (stereo unspecified) yielded an IC50 (Phosphodiesterase 4 [1]) of 401 nM and a Ki (Phosphodiesterase 4 [2]) of 443 nM.

With COc1ccc(C2CCN(C(=O)OC(C)(C)C)C2=O)cc1OC1CCCC1 (stereo unspecified) the IC50 (Phosphodiesterase 4 [1]) was 700 nM and the Ki (Phosphodiesterase 4 [2]) was 337 nM.

With COc1ccc(C2(Cc3ccccc3)CCN(C(=O)OC(C)(C)C)C2=O)cc1OC1CCCC1 (stereo unspecified) the IC50 (Phosphodiesterase 4 [1]) was 220 nM and the Ki (Phosphodiesterase 4 [2]) was 2996 nM.

For COc1ccc(C2(Cc3cc[n+]([O-])cc3)CCN(C(=O)OC(C)(C)C)C2=O)cc1OC1CCCC1 (stereo unspecified), the IC50 (Phosphodiesterase 4 [1]) was 59 nM and the Ki (Phosphodiesterase 4 [2]) was 217 nM.
